Measured values taken from patent US12371454B2, “Cyclic peptide compound having Kras inhibitory action” (priority 2019, dated 2025).
Starred links: 1 amine or outer side, 2 acyl side, 3 side chain; linkers in the order of their positions; H or OH if unused. Positions of bridges follow the written chain, without caps; N, C: chain ends. Non-standard residues stand in square brackets, D forms with d. Residues, ends and D or L forms follow the SMILES beside them. *: point of attachment. hPhe(3,5-F2-4-CF3) = N[C@@H](CCc1cc(F)c(C(F)(F)F)c(F)c1)C(=O)O; hPhe(3-Cl-4-CF3) = N[C@@H](CCc1ccc(C(F)(F)F)c(Cl)c1)C(=O)O; NMePhe(4-CF3) = CN[C@@H](Cc1ccc(C(F)(F)F)cc1)C(=O)O; NMePhe(4-Cl) = CN[C@@H](Cc1ccc(Cl)cc1)C(=O)O; X4 = O=C([C@H](Cc1cc(F)cc(Cl)c1)N[*:1])[*:2]; NMePhe(4-Me) = CN[C@@H](Cc1ccc(C)cc1)C(=O)O; NMePhe(2-Me) = CN[C@@H](Cc1ccccc1C)C(=O)O; X8 = O=C([C@H](Cc1cc(I)ccc1F)N[*:1])[*:2]; NMeGly(cPent) = CN[C@H](C(=O)O)C1CCCC1; Pro(4,4-F2) = O=C(O)[C@@H]1CC(F)(F)CN1; NMeCha = CN[C@@H](CC1CCCCC1)C(=O)O; NMeChg = CN[C@H](C(=O)O)C1CCCCC1; NMeF = CN[C@@H](Cc1ccccc1)C(=O)O; NMeD = CN[C@@H](CC(=O)O)C(=O)O; NMeL = CN[C@@H](CC(C)C)C(=O)O; NMeNva = CCC[C@H](NC)C(=O)O; NMeV = CN[C@H](C(=O)O)C(C)C; d(β3hA) = C[C@@H](N)CC(=O)O; NMeA = CN[C@@H](C)C(=O)O; NMeAib = CNC(C)(C)C(=O)O; Nle = CCCC[C@H](N)C(=O)O; Piperidide = C1CCN(*)CC1; Pyrrolidide = C1CCN(*)C1; Ac5c = NC1(C(=O)O)CCCC1; Aze = O=C(O)[C@@H]1CCN1; NPrGly = CCCNCC(=O)O; Sar = CNCC(=O)O

The molecules below were run against T1, Kras and SOS1 (biotin-tagged human Kras loaded with GDP, His-tagged human SOS1) (Homo sapiens, UniProt P01116, G12D) (assay: Protein-protein interaction inhibition between Kras and SOS1 (KrasGl2D-SOS PPI) using AlphaScreen). Conditions: AlphaScreen; biotin-tagged human Kras loaded with GDP, His-tagged human SOS1; read-out: KRAS G12D-SOS PPI IC50.
T1 construct: made in house; host or cells: E. coli (stated for Kras only)
T1 sequence (P01116 1-188 isoform P01116-2 G12D): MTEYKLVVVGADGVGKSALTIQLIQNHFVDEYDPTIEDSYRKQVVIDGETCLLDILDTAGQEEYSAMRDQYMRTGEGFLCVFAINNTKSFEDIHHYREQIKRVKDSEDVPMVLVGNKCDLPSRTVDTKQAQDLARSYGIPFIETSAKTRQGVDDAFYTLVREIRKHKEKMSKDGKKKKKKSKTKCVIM
Assay type: binding
In short: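 AlphaScreen format: Ni donor beads capture His-SOS1, streptavidin acceptor beads capture biotinylated Kras (E. coli-expressed, GDP-loaded post-purification). Excite 680 nm, read 520-620 nm.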
With `CC[C@H](C)[C@@H]1NC(=O)[C@H](C)N(C)C(=O)C[C@@H](C(=O)N2CCCC2)NC(=O)[C@H](CC(C)C)N(C)C(=O)[C@H](Cc2ccccc2)N(C)C(=O)[C@H](CC(C)C)NC(=O)[C@H](Cc2cc(F)cc(Cl)c2)NC(=O)CN(C)C(=O)[C@H](Cc2ccc(Cl)cc2)N(C)C(=O)CN(C)C(=O)CN(C)C1=O` [Compound 657] ([NMeA]I[Sar][Sar][NMePhe(4-Cl)][Sar][X4]L[NMeF][NMeL]D-Pyrrolidide; lactam N-11) the IC50 was 310 nM.
`CC[C@H](C)[C@@H]1NC(=O)[C@H](CC(C)C)N(C)C(=O)C[C@@H](C(=O)N(C)C)N(C)C(=O)[C@H](C2CCCC2)N(C)C(=O)C2(CCCC2)NC(=O)[C@H](Cc2ccccc2C)N(C)C(=O)[C@H](CCc2ccc(C(F)(F)F)c(Cl)c2)NC(=O)CN(C)C(=O)[C@H](CC2CCCCC2)N(C)C(=O)[C@@H]2CCN2C(=O)[C@H](C)N(C)C1=O` [Compound 1880] ([NMeL]I[NMeA][Aze][NMeCha][Sar][hPhe(3-Cl-4-CF3)][NMePhe(2-Me)][Ac5c][NMeGly(cPent)][NMeD]-NMe2; lactam N-11) was tested, and the IC50 was 13 nM.
In the case of `CCCC[C@@H]1NC(=O)[C@H](Cc2cc(I)ccc2F)NC(=O)CN(C)C(=O)[C@H](Cc2ccc(Cl)cc2)N(C)C(=O)CN(C)C(=O)CN(C)C(=O)[C@H]([C@@H](C)CC)NC(=O)[C@H](CC(C)C)N(C)C(=O)C[C@@H](C(=O)N2CCCCC2)N(C)C(=O)[C@H](CC(C)C)NC(=O)C(C)(C)N(C)C1=O` [Compound 1286] ([NMeL]I[Sar][Sar][NMePhe(4-Cl)][Sar][X8][Nle][NMeAib]L[NMeD]-Piperidide; lactam N-11), the IC50 is reported as 24 nM.
`CC[C@H](C)[C@@H]1NC(=O)[C@H](C)N(C)C(=O)C[C@@H](C)NC(=O)[C@H](C2CCCC2)N(C)C(=O)C2(CCCC2)NC(=O)[C@@H]2CCCN2C(=O)[C@H](CCc2ccc(C(F)(F)F)c(Cl)c2)NC(=O)[C@H]2CCCN2C(=O)[C@H](Cc2ccc(C(F)(F)F)cc2)N(C)C(=O)[C@@H]2CCN2C(=O)CN(C)C1=O` [Compound 1522] (cyclo([Ac5c][NMeGly(cPent)][d(β3hA)][NMeA]I[Sar][Aze][NMePhe(4-CF3)][dP][hPhe(3-Cl-4-CF3)]P)) showed an IC50 of 90 nM.
For `CCCN1CC(=O)N(C)[C@@H](CC2CCCCC2)C(=O)N(C)CC(=O)N[C@@H](CCc2ccc(C(F)(F)F)c(Cl)c2)C(=O)N2CCC[C@H]2C(=O)NC2(CCCC2)C(=O)N(C)[C@@H](C(C)C)C(=O)N[C@H](C)CC(=O)N(C)[C@@H](CC(C)C)C(=O)N[C@@H]([C@@H](C)CC)C(=O)N(C)CC1=O` [Compound 405] (cyclo([Ac5c][NMeV][d(β3hA)][NMeL]I[Sar][NPrGly][NMeCha][Sar][hPhe(3-Cl-4-CF3)]P)), the IC50 was 270 nM.
For `CCC[C@H]1C(=O)N[C@@H]([C@@H](C)CC)C(=O)N(C)CC(=O)N(C)CC(=O)N(C)[C@@H](Cc2ccc(C)cc2)C(=O)N(C)CC(=O)N[C@@H](CCc2cc(F)c(C(F)(F)F)c(F)c2)C(=O)N2CC(F)(F)C[C@H]2C(=O)NC2(CCCC2)C(=O)N(C)[C@@H](C2CCCCC2)C(=O)N(C)[C@H](C(=O)N2CCCC2)CC(=O)N1C` [Compound 1306] ([NMeNva]I[Sar][Sar][NMePhe(4-Me)][Sar][hPhe(3,5-F2-4-CF3)][Pro(4,4-F2)][Ac5c][NMeChg][NMeD]-Pyrrolidide; lactam N-11), the IC50 was 0.5 nM.
